In publication PMC7667569, “Chemical Composition and Biological Activities of Endophytic Fungus Talaromyces Wortmannii LGT-4, Cultured in CYM Medium” (Iranian Journal of Pharmaceutical Research : IJPR, 2020):
Values after ≈ are worked out from the molar mass of the structure shown.

Tested on: T1, monoamine oxidase (MAO)
T1 construct: gene MAOA
Assay: MAO inhibition assay (procedure by reference)
Details: isoenzyme and enzyme source not told

IC50 [µg/mL] | Compound
35 (≈ 233 µM) | O=C1OCc2c(O)cccc21 [compound 1, 4-hydroxyphthalide]
28 (≈ 166 µM) | C[C@@H]1NC(=O)[C@@H]2CCCN2C1=O [compound 5, Cis-cyclo(L-Ala-L-Pro)]
